From US20240423971A1, “APPLICATION OF RIP2 INHIBITOR COMBINED WITH CHEMOTHERAPY DRUG” (NINGBO COMBIREG PHARMACEUTICAL TECHNOLOGY CO., LTD., priority 2021, published 2024)

Tests used:
[1] = test system: melanoma (B16F10); test: Melanoma (B16F10) tumor-bearing model, GSK583 combined with PTX; type: in vivo, C57BL/6 mice; settings: GSK583 1 mg/kg
Method: Both of the test substances PTX (Sigma) and GSK583 (MCE) were prepared as a 20× DMSO stock solution, which was diluted with normal saline containing 5% (v/v) polyoxyethylene castor oil (Cremophor EL) to the administration concentration before use. Experimental animals and tumor strains: SPF grade male wild-type C57BL/6 mice, 6 to 8 weeks old, purchased from Beijing Vital River Laboratory Animal Technology Co., Ltd. Cells used in the experiment: murine melanoma cell line (B16-F10), purchased from ATCC. Mice were randomly divided into 4 groups with 8 mice in each group based on body weight according to the method shown in (A of FIG. 1 and B of FIG. 1), namely: (i) vehicle control group; (ii) GSK583 (1 mg/kg) group; (iii) PTX (10 mg/kg) group; (iv) GSK583 (1 mg/kg)+PTX (10 mg/kg) group. PTX, GSK583, and vehicle were administered intravenously once every 4 days for a total of 4 doses. The mice were subcutaneously inoculated with B16-F10 cells with a concentration of 2× 10^6 cells/mL and 0.1 mL/mouse, and the day of inoculation was recorded as DAY 0. The administration was started on DAY 1. During the administration, the animals were weighed every 2 days. The long diameter and short diameter of the tumor were measured with a vernier caliper. The tumor size was calculated by the formula: (½)×long diameter×(short diameter) 2. The experiment was terminated on DAY 15. After the mice were euthanized and dissected, the tumor was weighed and the tumor inhibition rate was calculated.

[2] = test system: immune cells in tumor tissues of melanoma (B16F10) tumor-bearing model; test: Flow cytometry detection of proportion of immune cells in tumor microenvironment of melanoma tumor-bearing mice; type: in vivo, C57BL/6 mice; settings: GSK583 1 mg/kg, PTX 10 mg/kg, combination vs vehicle, GSK583-alone
Method: Preparation of enzyme lysis buffer: 1 g of collagenase type IV (Sigma C5138), 100 mg of hyaluronidase (Sigma H6254), and 20,000 units of DNase type IV (Sigma D5025) were added to 80 mL of HBSS and mixed well. The mixture was then added with HBSS to make up a volume of 100 mL to obtain a 100×enzyme lysis buffer, which was filtered through a 0.22 μm filter membrane and stored at −20° C., and diluted with HBSS to 1× concentration before use.
Dissociation of tumor tissues: Tumor tissues were removed and weighed (0.04 to 1 g), then cut into small pieces of 2×2 mm with a scalpel, added with 2.5 mL of enzyme lysis mixture, and transferred to a gentleMACS C Tube (Miltenyi Biotec 130-096-334). The C Tube was inverted on a gentleMACS Dissociator (Miltenyi Biotec 130-093-235), and the program “gentleMACS Program m_impTumor_02” was run. The C Tube was removed from the gentleMACS Dissociator and incubated at 37° C. for 40 minutes. The C Tube was inverted on the gentleMACS Dissociator again, and the program “gentleMACS Program m_impTumor_03” was run. […]
Flow cytometry detection: After counting the dissociated tumor tissues, the cell concentration was adjusted, and 200 μL/well of cells (5 to 10×10^5 cells/well) were added to a 96 U-bottom plate. […] The cells were resuspended in 100 μL/well of cell staining buffer, and then detected by flow cytometry.

CC(=O)O[C@H]1C(=O)[C@@]2(C)[C@H]([C@H](OC(=O)c3ccccc3)[C@]3(O)C[C@H](OC(=O)[C@H](O)[C@@H](NC(=O)c4ccccc4)c4ccccc4)C(C)=C1C3(C)C)[C@]1(OC(C)=O)CO[C@@H]1C[C@@H]2O [PTX, Paclitaxel]
tumor weight at the end of the administration ([1]; B16-F10 in C57BL/6 mice, PTX 10 mg/kg i.v. every 4 days x4, DAY 15, vs control group): significantly and statistically lower than that of the control group
growth rate of tumor volume ([1]; B16-F10 in C57BL/6 mice, PTX 10 mg/kg i.v. every 4 days x4, vs control group): slower than that of the control group
tumor growth compared to the vehicle control group ([1]; B16-F10 s.c. in C57BL/6 mice, PTX 10 mg/kg i.v. once every 4 days, 4 doses, to DAY 15): significantly inhibited tumor growth
proportion of neutrophils in tumor tissues [2]: significant decrease
